Experimental data: patent publication US9365562B2, “1,3 substituted azetidine PDE10 inhibitors” (Merck Sharp & Dohme Corp., priority 2011, dated 2016)

target: human PDE10A2 (Homo sapiens (Human), UniProt Q9Y233); experiment: PDE10 fluorescence polarization (IMAP FP) inhibition assay; format: biochemical; conditions: apparent inhibition constant, FAM-labeled cAMP substrate 50 nM, room temperature
Procedure: The activity of the compounds in accordance with the present invention as PDE10 inhibitors may be readily determined without undue experimentation using a fluorescence polarization (FP) methodology that is well known in the art (Huang, W., et al., J. Biomol Screen, 2002, 7: 215).
In a typical experiment the PDE10 inhibitory activity of the compounds of the present invention was determined in accordance with the following experimental method. PDE10A2 was amplified from human fetal brain cDNA (Clontech, Mountain View, Calif.) using a forward primer corresponding to nucleotides 56-77 of human PDE10A2 (Accession No. AF127480, Genbank Identifier 4894716), containing a Kozak consensus sequence, and a reverse primer corresponding to nucleotides 2406-2413 of human PDE10A2 (Accession No. AF127480, Genbank Identifier 4894716). Amplification with Easy-A polymerase (Stratagene, La Jolla, Calif.) was 95° C. for 2 minutes followed by thirty three cycles of 95° C. for 40 seconds, 55° C. for 30 seconds, and 72° C. for 2 minutes 48 seconds. Final extension was 72° C. for 7 minutes. The PCR product was TA cloned into pcDNA3.2-TOPO (Invitrogen, Carlsbad, Calif.) according to standard protocol. AD293 cells with 70-80% confluency were transiently transfected with human PDE10A2/pcDNA3.2-TOPO using Lipofectamine 2000 according to manufacturer specifications (Invitrogen, Carlsbad, Calif.). Cells were harvested 48 hours post-transfection and lysed by sonication (setting 3, 10×5 sec pulses) in a buffer containing 20 mM HEPES, 1 mM EDTA and protease inhibitor cocktail (Roche). Lysate was collected by centrifugation at 75,000×g for 20 minutes. Supernatant containing the cytoplasmic fraction was used for evaluation of PDE10A2 activity. The fluorescence polarization assay for cyclic nucleotide phosphodiesterases was performed using an IMAP® FP kit supplied by Molecular Devices, Sunnyvale, Calif. (product # R8139). IMAP® technology has been applied previously to phosphodiesterase assays (Huang, W., et al., J. Biomol Screen, 2002, 7: 215). Assays were performed at room temperature in 384-well microtiter plates with an incubation volume of 20.2 μL. Solutions of test compounds were prepared in DMSO and serially diluted with DMSO to yield 8 μL of each of 10 solutions differing by 3-fold in concentration, at 32 serial dilutions per plate. 100% inhibition is determined using a known PDE10 inhibitor, which can be any compound that is present at 5,000 times its Ki value in the assay described as follows, such as papaverine (see Siuciak, et al. Neuropharmacology (2006) 51:386-396; Becker, et al. Behav Brain Res (2008) 186(2):155-60; Threlfell, et al., J Pharmacol Exp Ther (2009) 328(3):785-795), 2-{4-[pyridin-4-yl-1-(2,2,2-trifluoroethyl)-1H-pyrazol-3-yl]phenoxymethyl}quinoline succinic acid or 2-[4-(1-methyl-4-pyridin-4-yl-1H-pyrazol-3-yl)-phenoxymethyl]quinoline succinic acid (see Schmidt, et al. J Pharmacol Exp Ther (2008) 325:681-690; Threlfell, et al., J Pharmacol Exp Ther (2009) 328(3): 785-795). 0% of inhibition is determined by using DMSO (1% final concentrations). A Labcyte Echo 555 (Labcyte, Sunnyvale, Calif.) is used to dispense […] from each well of the titration plate to the 384 well assay plate. A solution of enzyme (1/7000 dilution from aliquots; sufficient to produce 20% substrate conversion) and a separate solution of FAM-labeled cAMP PDE from Molecular Devices (product # R7506), at a final concentration of 50 nM are made in the assay buffer (10 mM Tris HCl, pH 7.2, 10 mM MgCl2, 0.05% NaN3 0.01% Tween-20, and 1 mM DTT). The enzyme is added to the assay plates by the addition of 10 μL of enzyme solution to each well, shaken to mix and incubated at room temperature for 60 minutes. The substrate is then added to the assay plates by the addition of 10 μL of substrate solution to each well, shaken to mix, and incubated at room temperature for 60 minutes. […]

Sequence of human PDE10A2 (Q9Y233 267-1055): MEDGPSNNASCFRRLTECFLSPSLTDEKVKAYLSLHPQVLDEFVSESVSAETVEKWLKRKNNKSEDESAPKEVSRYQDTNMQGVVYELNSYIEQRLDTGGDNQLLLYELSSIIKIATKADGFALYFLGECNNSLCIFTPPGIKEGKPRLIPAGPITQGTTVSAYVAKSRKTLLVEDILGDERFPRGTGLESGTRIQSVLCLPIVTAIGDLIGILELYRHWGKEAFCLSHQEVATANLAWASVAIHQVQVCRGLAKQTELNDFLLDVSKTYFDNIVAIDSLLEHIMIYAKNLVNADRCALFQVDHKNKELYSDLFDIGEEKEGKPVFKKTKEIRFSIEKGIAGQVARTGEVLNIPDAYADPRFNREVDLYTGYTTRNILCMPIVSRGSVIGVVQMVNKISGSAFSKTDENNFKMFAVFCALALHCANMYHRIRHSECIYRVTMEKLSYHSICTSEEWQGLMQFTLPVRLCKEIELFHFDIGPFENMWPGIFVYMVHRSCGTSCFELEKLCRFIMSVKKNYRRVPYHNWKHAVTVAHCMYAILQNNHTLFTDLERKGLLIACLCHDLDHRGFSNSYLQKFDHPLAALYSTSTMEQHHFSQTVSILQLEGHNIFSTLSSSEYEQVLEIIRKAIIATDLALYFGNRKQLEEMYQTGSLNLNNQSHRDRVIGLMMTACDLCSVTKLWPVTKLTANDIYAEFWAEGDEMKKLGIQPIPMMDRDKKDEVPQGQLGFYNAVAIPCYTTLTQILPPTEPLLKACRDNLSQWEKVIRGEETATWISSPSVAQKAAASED

Row | Ki [nM] | Structure (SMILES)
1 | 2 | Cc1nc(N2CC(c3nc4ccccc4n3C)C2)cc(-n2nc(C)nc2C2CCCCC2)n1 [Example 45, 2-(1-(6-(5-cyclohexyl-3-methyl-1H-1,2,4-triazol-1-yl)-2-methylpyrimidin-4-yl)azetidin-3-yl)-1-methyl-1H-benzo[d]imidazole]
2 | 1.3 | Cc1nc(-c2cccc(C(F)(F)F)n2)cc(N2CC(c3nc4ccccc4n3C)C2)n1 [Example 87, 1-methyl-2-(1-(2-methyl-6-(6-(trifluoromethyl)pyridin-2-yl)pyrimidin-4-yl)azetidin-3-yl)-1H-benzo[d]imidazole]
3 | 17 | Cc1nc(N2CC(c3nc4cccc(C)c4[nH]3)C2)cc(-n2nc(C)nc2C)n1 [Example 110, 2-(1-(6-(3,5-dimethyl-1H-1,2,4-triazol-1-yl)-2-methylpyrimidin-4-yl)azetidin-3-yl)-7-methyl-1H-benzo[d]imidazole]
4 | 1 | Cc1ccc(-c2cc(N3CC(c4nc5ccccc5n4C)C3)nc(C)n2)nc1 [Example 94, 1-methyl-2-(1-(2-methyl-6-(5-methylpyridin-2-yl)pyrimidin-4-yl)azetidin-3-yl)-1H-benzo[d]imidazole]
5 | 1.2 | Cc1cnn(-c2cc(N3CC(c4nc5ccccc5n4C)C3)nc(C(F)(F)F)n2)c1 [Example 5, 1-methyl-2-(1-(6-(4-methyl-1H-pyrazol-1-yl)-2-(trifluoromethyl)pyrimidin-4-yl)azetidin-3-yl)-1H-benzo[d]imidazole]
6 | 0.82 | COc1nc(N2CC(c3nc4ccccc4n3C)C2)cc(-n2cc(C)cn2)n1 [Example 4, 2-(1-(2-methoxy-6-(4-methyl-1H-pyrazol-1-yl)pyrimidin-4-yl)azetidin-3-yl)-1-methyl-1H-benzo[d]imidazole]
7 | 3.1 | Cc1cn(-c2cc(N3CC(c4nc5ccccc5n4C)C3)nc(C)n2)nn1 [Example 29, 1-methyl-2-(1-(2-methyl-6-(4-methyl-1H-1,2,3-triazol-1-yl)pyrimidin-4-yl)azetidin-3-yl)-1H-benzo[d]imidazole]
8 | 0.65 | Cc1nc(N2CC(c3nc4ccccc4n3C)C2)cc(-n2ccc(C(C)C)n2)n1 [Example 14, 2-(1-(6-(3-isopropyl-1H-pyrazol-1-yl)-2-methylpyrimidin-4-yl)azetidin-3-yl)-1-methyl-1H-benzo[d]imidazole]
9 | 1.3 | COc1nc(-c2ccc(C)cn2)cc(N2CC(c3nc4ccccc4n3C)C2)n1 [Example 96, 2-(1-(2-methoxy-6-(5-methylpyridin-2-yl)pyrimidin-4-yl)azetidin-3-yl)-1-methyl-1H-benzo[d]imidazole]
10 | 9.5 | Cc1nc(N2CC(c3nc4ccccc4n3CCCC#N)C2)cc(-n2nc(C)nc2C)n1 [Example 121, 4-(2-(1-(6-(3,5-dimethyl-1H-1,2,4-triazol-1-yl)-2-methylpyrimidin-4-yl)azetidin-3-yl)-1H-benzo[d]imidazol-1-yl)butanenitrile]
11 | 27 | COc1nc(C)ccc1-c1cc(N2CC(c3nc4ccccc4n3C)C2)nc(C)n1 [Example 84, 2-(1-(6-(2-methoxy-6-methylpyridin-3-yl)-2-methylpyrimidin-4-yl)azetidin-3-yl)-1-methyl-1H-benzo[d]imidazole]
12 | 0.76 | Cc1nc(N2CC(c3nc4ccccc4n3C)C2)cc(-n2ccc(C(F)(F)F)n2)n1 [Example 11, 1-methyl-2-(1-(2-methyl-6-(3-(trifluoromethyl)-1H-pyrazol-1-yl)pyrimidin-4-yl)azetidin-3-yl)-1H-benzo[d]imidazole]
13 | 6.6 | Cc1nc(N2CC(c3nc4ccccc4n3CCO)C2)cc(-n2nc(C)nc2C)n1 [Example 117, 2-(2-(1-(6-(3,5-dimethyl-1H-1,2,4-triazol-1-yl)-2-methylpyrimidin-4-yl)azetidin-3-yl)-1H-benzo[d]imidazol-1-yl)ethanol]
14 | 3.9 | Cc1nc(N2CC(c3nc4ccccc4n3C)C2)cc(-n2nc(C)nc2C2CC(=O)N(C)C2)n1 (stereo not shown) [Example 47, 1-methyl-4-(3-methyl-1-(2-methyl-6-(3-(1-methyl-1H-benzo[d]imidazol-2-yl)azetidin-1-yl)pyrimidin-4-yl)-1H-1,2,4-triazol-5-yl)pyrrolidin-2-one]
15 | 0.74 | Cc1nc(N2CC(c3nc4ccccc4n3C)C2)cc(-n2ccc(C3CC3)n2)n1 [Example 13, 2-(1-(6-(3-cyclopropyl-1H-pyrazol-1-yl)-2-methylpyrimidin-4-yl)azetidin-3-yl)-1-methyl-1H-benzo[d]imidazole]
16 | 0.61 | Cc1cnn(-c2cc(N3CC(c4nc5ccccc5n4C)C3)nc(C)n2)c1 [Example 2, 1-methyl-2-(1-(2-methyl-6-(4-methyl-1H-pyrazol-1-yl)pyrimidin-4-yl)azetidin-3-yl)-1H-benzo[d]imidazole]
17 | 2.5 | Cc1nc(N2CC(c3nc4ccccc4n3C)C2)cc(-n2cccn2)n1 [Example 3, 1-methyl-2-(1-(2-methyl-6-(1H-pyrazol-1-yl)pyrimidin-4-yl)azetidin-3-yl)-1H-benzo[d]imidazole]
18 | 8 | Cc1nc(N2CC(c3nc4ccc(F)cc4[nH]3)C2)cc(-n2nc(C)nc2C)n1 [Example 109, 2-(1-(6-(3,5-dimethyl-1H-1,2,4-triazol-1-yl)-2-methylpyrimidin-4-yl)azetidin-3-yl)-6-fluoro-1H-benzo[d]imidazole]
19 | 0.54 | Cc1cnn(-c2cc(N3CC(c4nc5ccccc5n4C)C3)nc(C3CC3)n2)n1 [Example 33, 2-(1-(2-cyclopropyl-6-(4-methyl-2H-1,2,3-triazol-2-yl)pyrimidin-4-yl)azetidin-3-yl)-1-methyl-1H-benzo[d]imidazole]
20 | 0.12 | Cc1nc(N2CC(c3nc4ccccc4n3C)C2)cc(-n2nc(C)nc2Cc2ccc(F)cc2)n1 [Example 58, 2-(1-(6-(5-(4-fluorobenzyl)-3-methyl-1H-1,2,4-triazol-1-yl)-2-methylpyrimidin-4-yl)azetidin-3-yl)-1-methyl-1H-benzo[d]imidazole]
21 | 75 | CC(=O)Nc1ncccc1-c1cc(N2CC(c3nc4ccccc4n3C)C2)nc(C)n1 [Example 83, N-(3-(2-methyl-6-(3-(1-methyl-1H-benzo[d]imidazol-2-yl)azetidin-1-yl)pyrimidin-4-yl)pyridin-2-yl)acetamide]
22 | 26 | Cc1cnc(-c2nc(C)nn2-c2cc(N3CC(c4nc5ccccc5n4C)C3)nc(C)n2)cn1 [Example 53, 1-methyl-2-(1-(2-methyl-6-(3-methyl-5-(5-methylpyrazin-2-yl)-1H-1,2,4-triazol-1-yl)pyrimidin-4-yl)azetidin-3-yl)-1H-benzo[d]imidazole]
23 | 39 | Cc1ccc2nc(C3CN(c4cc(-n5nc(C)nc5C)nc(C)n4)C3)[nH]c2c1 [Example 111, 2-(1-(6-(3,5-dimethyl-1H-1,2,4-triazol-1-yl)-2-methylpyrimidin-4-yl)azetidin-3-yl)-6-methyl-1H-benzo[d]imidazole]
24 | 2.2 | Cc1nc(-c2nccs2)cc(N2CC(c3nc4ccccc4n3C)C2)n1 [Example 105, 2-(2-methyl-6-(3-(1-methyl-1H-benzo[d]imidazol-2-yl)azetidin-1-yl)pyrimidin-4-yl)thiazole]
25 | 41 | COc1cccnc1-c1cc(N2CC(c3nc4ccccc4n3C)C2)nc(C)n1 [Example 100, 2-(1-(6-(3-methoxypyridin-2-yl)-2-methylpyrimidin-4-yl)azetidin-3-yl)-1-methyl-1H-benzo[d]imidazole]
